Laboratory results: PubChem BioAssay (NCI)
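Cells were grown in 96-well plates and exposed to each compound for 48 hours at five concentrations; endpoints were interpolated linearly between bracketing concentrations, or set to the highest concentration if not reached. TGI: total growth inhibition.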 Where a SMILES comes first, the peptide text is derived from it. The star is where a group is joined. OSu = O=C1CCC(=O)N1O*

Legend:
Experiment in all cases: NCI anticancer screen, dose series, 48 h
MOLT-4 leukemia = tested on: MOLT-4 leukemia
HS 578T breast = tested on: HS 578T breast
OVCAR-5 ovarian = tested on: OVCAR-5 ovarian
A498 renal = tested on: A498 renal
UO-31 renal = tested on: UO-31 renal
MDA-MB-231 breast = tested on: MDA-MB-231 breast
SK-MEL-28 melanoma = tested on: SK-MEL-28 melanoma
SW-620 colon = tested on: SW-620 colon
HT29 colon = tested on: HT29 colon
MCF7 breast = tested on: MCF7 breast
HOP-62 NSCLC = tested on: HOP-62 NSCLC
786-0 renal = tested on: 786-0 renal
OVCAR-8 ovarian = tested on: OVCAR-8 ovarian
UACC-257 melanoma = tested on: UACC-257 melanoma
IGROV1 ovarian = tested on: IGROV1 ovarian
M14 melanoma = tested on: M14 melanoma
MDA-N = tested on: MDA-N
SK-MEL-5 melanoma = tested on: SK-MEL-5 melanoma
HCT-116 colon = tested on: HCT-116 colon
HOP-92 NSCLC = tested on: HOP-92 NSCLC
SN12C renal = tested on: SN12C renal
HL-60(TB) leukemia = tested on: HL-60(TB) leukemia
SK-MEL-2 melanoma = tested on: SK-MEL-2 melanoma
RXF 393 renal = tested on: RXF 393 renal
UACC-62 melanoma = tested on: UACC-62 melanoma
NCI-H23 lung = tested on: NCI-H23 lung
ACHN renal = tested on: ACHN renal
HCT-15 colon = tested on: HCT-15 colon
SNB-75 CNS = tested on: SNB-75 CNS
TK-10 renal = tested on: TK-10 renal
COLO 205 colon = tested on: COLO 205 colon
PC-3 prostate = tested on: PC-3 prostate
A549 NSCLC = tested on: A549 NSCLC
K-562 leukemia = tested on: K-562 leukemia
U251 CNS = tested on: U251 CNS
SR leukemia = tested on: SR leukemia
MALME-3M melanoma = tested on: MALME-3M melanoma
SNB-19 CNS = tested on: SNB-19 CNS
T-47D breast = tested on: T-47D breast
NCI-H226 lung = tested on: NCI-H226 lung
NCI-H460 lung = tested on: NCI-H460 lung
RPMI-8226 leukemia = tested on: RPMI-8226 leukemia
HCC-2998 colon = tested on: HCC-2998 colon
KM12 colon = tested on: KM12 colon
BT-549 breast = tested on: BT-549 breast
EKVX NSCLC = tested on: EKVX NSCLC
SF-539 CNS = tested on: SF-539 CNS
CAKI-1 renal = tested on: CAKI-1 renal
SF-295 CNS = tested on: SF-295 CNS
OVCAR-4 ovarian = tested on: OVCAR-4 ovarian
NCI/ADR-RES ovarian = tested on: NCI/ADR-RES ovarian
OVCAR-3 ovarian = tested on: OVCAR-3 ovarian
DU-145 prostate = tested on: DU-145 prostate
SK-OV-3 ovarian = tested on: SK-OV-3 ovarian
LOX IMVI melanoma = tested on: LOX IMVI melanoma
MDA-MB-435 = tested on: MDA-MB-435
CCRF-CEM leukemia = tested on: CCRF-CEM leukemia

Measured: TGI

NCCCCC(NC(=O)C(N)Cc1ccc(O)cc1)C(=O)NC(Cc1ccc(O)cc1)C(=O)NC(CCCCN)C(=O)ON1C(=O)CCC1=O (configuration not stated) (H-YKYK-OSu; configuration not given here)
not listed: SF-539 CNS | CAKI-1 renal | SF-295 CNS | OVCAR-4 ovarian | NCI/ADR-RES ovarian | OVCAR-3 ovarian | DU-145 prostate | SK-OV-3 ovarian | LOX IMVI melanoma | MDA-MB-435 | CCRF-CEM leukemia
> 100 µM: all other assays above

COc1ccc(CCN2C(=O)CC34C=CC(CC3C2=O)O4)cc1OC (configuration not stated)
not listed: HS 578T breast | RXF 393 renal | SNB-75 CNS | MALME-3M melanoma | NCI-H226 lung | NCI-H460 lung
> 100 µM: all other assays above
